Source: patent US11214590B2, “Photoresponsive nucleotide analog capable of photocrosslinking in visible light region” (JAPAN ADVANCED INSTITUTE OF SCIENCE AND TECHNOLOGY, priority 2017, dated 2022)

Assays:
cODN = test: Photocrosslinking test with SPCX, UPLC analysis; format: biochemical
Protocol: The experiment was carried out as described below using the following ODN (^SPCX) and cODN:
10 μM of ODN (^SPCX) and 10 μM of cODN were dissolved in a 50 mM cacodylic acid buffer (pH 7.4) containing 100 mM of NaCl, and then heated at 90° C. for 1 minute, and then cooled at 4° C. Irradiation with light having 450 nm (LED) was carried out at 4° C. Analysis was then carried out by UPLC. The analysis conditions for UPLC are as follows. The measurement was carried out at a measurement wavelength of 260 nm and at a flow rate of 0.2 mL/min, using a mixed solution of ammonium formate and acetonitrile in which the initial conditions were 99% of ammonium formate and […], and 85% of ammonium formate and 15% of acetonitrile at the end of the analysis (10 minutes).

nucleic acids = settings: irradiation with light having 350 nm; cited from earlier work

OC[C@H]1O[C@@H](n2c3ccccc3c3cc4ccc(=S)oc4cc32)CC1O (stereo partly shown) [^SPCX]
photoreactivity compared with pyranocarbazole (PCX) (cODN; irradiation with light having 450 nm): higher photoreactivity
light irradiation time giving photocrosslinking (cODN; irradiation with light having 450 nm, 4° C.): 10 s

5'-TGCA^SPCXCCGT-3' [ODN (^SPCX)]
progress of photocrosslinking reaction (UPLC peaks) (cODN; 450 nm (LED), 4° C., 10 μM ODN and 10 μM cODN): progress of the photocrosslinking reaction was confirmed

O=c1ccc2cc3ccoc3cc2o1 [psoralen]
time required for photoreaction (nucleic acids): several hours
